Reference: publication PMC4741889, “Ligand-based chemoinformatic discovery of a novel small molecule inhibitor targeting CDC25 dual specificity phosphatases and displaying in vitro efficacy against melanoma cells” (Oncotarget, 2015)

Experiments:
pAkt protein levels = test: Western blotting of pAkt (Ser473) in A2058 cells; type: cell-based, human; conditions: A2058, 100 μM, 2 and 4 h
Experimental: (§1) The molecular mechanisms that regulate the cytotoxic potential of 7 in melanoma cells were further investigated through the evaluation of the activation state of protein kinase B (pAkt), one of the key proteins involved in the control and regulation of cell survival. To this aim, the protein levels of pAkt have been analyzed after 2- and 4-h incubation of A2058 cells with 7. […] It is known that Akt regulates the process of cell survival by phosphorylating different substrates, directly or indirectly involved in the apoptotic program. One of these targets is p53, a protein with a tumor-suppressor activity that regulates the cell cycle, as well as the expression of several genes involved in the apoptosis. […]
(§2) A2058 cells were seeded into 6-well-plates (3 × 10^5 cells/plate) for 24 h at 37°C and then treated at different times with 100 μM compound 7 or 0.5% DMSO. […] The protein concentration was determined by the method of Bradford, using bovine serum albumin (BSA) as standard. […] Membranes were then analysed by an enhanced chemiluminescence reaction, using Super Signal West Pico kit (Pierce) according to manufacturer's instruction; signals were visualized by autoradiography.

p53 protein levels = test: Western blotting of p53 protein levels in A2058 cells; type: cell-based, human; conditions: A2058, 100 μM, 8 h; significant after 16 h
Experimental: as §1, §2

SAN cells = test: Apoptosis, subdiploid DNA content by PI flow cytometry, SAN cells; type: cell-based, human
Source text: PI incorporation followed by flow cytometric analysis was used to detect the effect of 7 on the number of nuclei with a sub-diploid content, a typical hallmark of apoptosis. A time-dependent increase of apoptosis was evident in both A2058 and SAN cells and in particular, the effect of 7 on cell death program was already evident after 24-h treatment (Figure 7). […] To further investigate on the capacity of 7 to induce apoptosis, the enzymatic activity of caspase-3, the final effector of apoptotic program, was monitored.
[…] After each treatment, cells were harvested with trypsin, centrifuged and the pellet was resuspended in phosphate-buffered saline (PBS). For cell cycle analysis, cells were fixed with 70% (v/v) cold ethanol and stored at −20°C for 1 h. Then, cells were washed with cold PBS, centrifuged and the pellets were resuspended in 200 μL of a non-lysis solution containing 50 μg/mL PI. For the evaluation of apoptosis, cells were not fixed in ethanol and directly resuspended in 200 μL of a hypotonic lysis solution containing 50 μg/mL PI. After incubation at 4°C for 30 min, cells were analyzed with a FACScan flow cytometer (Becton Dickinson) for evaluating the distribution in cell cycle phases or the presence of nuclei with a DNA content lower than the diploid.

A2058 cells = test: Intracellular ROS level (DCFH-DA), A2058 cells; type: cell-based, human
Experimental: The high redox reactivity of quinonoid molecules, like compound 7, could greatly perturb the intracellular redox state. […] The oxidant effect of 7 was also evaluated after cell pre-treatment with two antioxidant molecules, such as N-acetyl-cysteine (NAC) and the specific inhibitor of NADPH oxidase, apocynin. To this aim, A2058 and SAN cells were pre-incubated for 1 h with 10 mM NAC or 45 min with 0.5 mM apocynin and then treated for 4 h with 100 μM compound 7. […] The cytotoxic activity of 7 could be mediated by the observed increase of ROS level.
The intracellular ROS level was monitored using the oxidation-sensitive fluorescence probe DCFH-DA. Cells were seeded into 6-well-plates (3 × 10^5 cells/plate) for 24 h at 37°C and then treated at various times with 100 μM compound 7 or 0.5% DMSO. DCFH-DA was added in the dark at 10 μM final concentration 30-min before the end of each incubation; then, cells were collected, washed in PBS, and finally resuspended in 500 μL PBS for fluorimetric analysis. Measurements were realized in a Cary Eclipse fluorescence spectrophotometer (Varian); excitation and emission wavelengths were set at 485 nm and 530 nm, respectively; both excitation and emission slits were set at 10 nm. The effect of 7 on ROS production was also estimated after pretreatment of cells with 10 mM NAC for 1 h.

CDC25B = target: T1, CDC25B (Homo sapiens, UniProt P30305); test: Ki from OMFP hydrolysis kinetics (Lineweaver-Burk), CDC25B; type: biochemical; conditions: 10 nM CDC25B, 1–25 μM OMFP; mean ± S.E.
T1 construct: Recombinant forms of the catalytic domains of CDC25A, -B and -C were obtained through the vectors pET28a-CDC25A-cd, pET28a-CDC25B-cd and pET28a-CDC25C-cd; made in house
T1 sequence (P30305 431-538 limits assumed): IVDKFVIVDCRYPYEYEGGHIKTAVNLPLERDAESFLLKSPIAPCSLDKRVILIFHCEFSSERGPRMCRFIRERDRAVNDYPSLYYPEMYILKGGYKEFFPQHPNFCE
Experimental: To measure the inhibition constant (Ki) of the recombinant forms of CDC25A, -B and -C towards the various inhibitors, the affinity of the different forms of CDC25 towards OMFP was measured either in the absence or in the presence of fixed concentrations of the various inhibitors. The reaction mixture contained 20 nM CDC25A, or 10 nM CDC25B, or 40 nM CDC25C, and different concentrations of the various inhibitors in 500 μL final volume of 20 mM Tris-HCl, pH 7.8, 1 mM DTT. DMSO was used as vehicle control. The reaction started by the addition of 1–25 μM OMFP, and the rate of OMFP hydrolysis was measured as indicated before. The corresponding Lineweaver-Burk plots allowed the calculation of the KM for OMFP and of the Vmax of OMFP hydrolysis, expressed as a.u./minmax. […] The Ki values were obtained from the decrease of a.u./minmax in the presence of the inhibitor, according to the equation a.u./mimmax’ = a.u./mimmax/{1 + ([I]/Ki)}, where a.u./mimmax’ represents the Vmax measured in the presence of the concentration [I] of the inhibitor. The Ki values were obtained from at least three independent experiments and reported as mean ± S.E.

With `O=C(O)C1CCCCC1c1c2ccc(=O)cc-2oc2cc(O)ccc12` (stereo not drawn) [Compound 7, 2-(6-hydroxy-3-oxo-3H-xanthen-9-yl)cyclohexanecarboxylic acid] the “protein level of pAkt with respect to total Akt” value (pAkt protein levels) was “early reduction of the protein level of pAkt”, the p53 protein level (p53 protein levels) was “higher level of p53 compared to control” and the “level of apoptosis caused by 7 in the presence of Z-VAD-FMK” value (SAN cells; 100 μM 7 + 100 μM Z-VAD-FMK, 48 h) was “significantly decreased”. The “apoptosis (nuclei with sub-diploid content)” value (SAN cells; 100 μM, 24-72 h) was “increase of apoptosis was significant even at 24-h treatment”, the “apoptosis after NAC pre-treatment” value (SAN cells; NAC pre-treatment, 100 μM 7, 48 h) was “in a great part reverted” and the “intracellular ROS level” value (A2058 cells; A2058, 100 μM, significant after 4 h) was “time-dependent increase of the ROS level”. For the same molecule, the “increase of ROS level after apocynin pre-treatment” value (A2058 cells; A2058, 0.5 mM apocynin 45 min, then 100 μM 7 for 4 h) was “did not prevent the increase of ROS level”, the “increase of ROS level after NAC pre-treatment” value (A2058 cells; A2058, 10 mM NAC 1 h, then 100 μM 7 for 4 h) was “prevented by the NAC treatment” and the Ki (CDC25B) was 780 ± 30 nM.
